Drawing on ChEMBL document CHEMBL5291721, “A preclinical secondary pharmacology resource illuminates target-adverse drug reaction associations of marketed drugs” (Nat Commun, 2023), this text covers AC50 for three compounds.

Structures are written as SMILES.

Experiment [1] addresses Beta-2 adrenergic receptor (Homo sapiens, UniProt P07550).
The target of experiment [2] is Voltage-dependent L-type calcium channel subunit alpha-1C (Rattus norvegicus, UniProt P22002). The format is functional.
Experiment [3] deals with T1, Muscarinic acetylcholine receptor M2 (Homo sapiens, UniProt P08172).
T1 sequence (P08172 whole entry): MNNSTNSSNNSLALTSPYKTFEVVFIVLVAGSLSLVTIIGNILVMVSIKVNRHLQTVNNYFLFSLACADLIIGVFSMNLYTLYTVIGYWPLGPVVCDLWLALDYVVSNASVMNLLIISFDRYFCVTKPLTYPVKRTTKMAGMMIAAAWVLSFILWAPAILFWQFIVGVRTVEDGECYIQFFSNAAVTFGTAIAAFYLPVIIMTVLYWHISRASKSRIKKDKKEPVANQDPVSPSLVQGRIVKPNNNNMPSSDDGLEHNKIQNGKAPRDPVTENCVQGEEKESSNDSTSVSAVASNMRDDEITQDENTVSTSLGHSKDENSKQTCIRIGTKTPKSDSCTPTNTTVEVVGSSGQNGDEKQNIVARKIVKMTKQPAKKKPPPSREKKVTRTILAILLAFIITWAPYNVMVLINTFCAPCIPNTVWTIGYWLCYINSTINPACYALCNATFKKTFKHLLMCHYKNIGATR
The class given is functional, cell-based.

Experiment [4] concerns the target Cannabinoid receptor 1 (Homo sapiens, UniProt P21554).
The target of experiment [5] is D(3) dopamine receptor (Homo sapiens, UniProt P35462).
Chain of D(3) dopamine receptor (P35462 whole entry): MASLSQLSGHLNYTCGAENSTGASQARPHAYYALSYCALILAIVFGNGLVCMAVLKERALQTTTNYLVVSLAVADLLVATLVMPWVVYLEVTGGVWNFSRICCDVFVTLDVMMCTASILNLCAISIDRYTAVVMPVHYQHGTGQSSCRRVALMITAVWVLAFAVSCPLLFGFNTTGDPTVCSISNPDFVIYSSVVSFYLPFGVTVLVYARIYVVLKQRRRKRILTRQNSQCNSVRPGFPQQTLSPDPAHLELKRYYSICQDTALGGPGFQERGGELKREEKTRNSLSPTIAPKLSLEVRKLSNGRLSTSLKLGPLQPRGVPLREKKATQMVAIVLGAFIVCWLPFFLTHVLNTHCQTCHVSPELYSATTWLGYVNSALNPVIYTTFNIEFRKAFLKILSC
Experiment [6] has as its target T2, 5-hydroxytryptamine receptor 1A (Homo sapiens, UniProt P08908).
T2 sequence (P08908 whole entry): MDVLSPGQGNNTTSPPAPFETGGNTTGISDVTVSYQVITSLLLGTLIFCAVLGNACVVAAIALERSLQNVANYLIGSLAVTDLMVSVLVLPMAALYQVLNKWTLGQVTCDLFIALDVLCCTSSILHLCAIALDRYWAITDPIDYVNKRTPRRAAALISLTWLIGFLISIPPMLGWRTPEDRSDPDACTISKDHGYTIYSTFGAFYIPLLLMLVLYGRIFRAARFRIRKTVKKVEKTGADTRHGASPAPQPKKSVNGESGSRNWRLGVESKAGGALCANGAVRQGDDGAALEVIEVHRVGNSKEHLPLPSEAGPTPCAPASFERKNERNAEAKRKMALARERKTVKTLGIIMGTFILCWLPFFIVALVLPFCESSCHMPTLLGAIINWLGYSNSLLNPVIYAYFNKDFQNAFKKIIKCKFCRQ
The format is functional, cell-based.

Experiment [7] has as its target T2, 5-hydroxytryptamine receptor 1A.
Experiment [8] deals with 5-hydroxytryptamine receptor 2B (Homo sapiens, UniProt P41595). The class given is functional, cell-based.
Chain of 5-hydroxytryptamine receptor 2B (P41595 whole entry): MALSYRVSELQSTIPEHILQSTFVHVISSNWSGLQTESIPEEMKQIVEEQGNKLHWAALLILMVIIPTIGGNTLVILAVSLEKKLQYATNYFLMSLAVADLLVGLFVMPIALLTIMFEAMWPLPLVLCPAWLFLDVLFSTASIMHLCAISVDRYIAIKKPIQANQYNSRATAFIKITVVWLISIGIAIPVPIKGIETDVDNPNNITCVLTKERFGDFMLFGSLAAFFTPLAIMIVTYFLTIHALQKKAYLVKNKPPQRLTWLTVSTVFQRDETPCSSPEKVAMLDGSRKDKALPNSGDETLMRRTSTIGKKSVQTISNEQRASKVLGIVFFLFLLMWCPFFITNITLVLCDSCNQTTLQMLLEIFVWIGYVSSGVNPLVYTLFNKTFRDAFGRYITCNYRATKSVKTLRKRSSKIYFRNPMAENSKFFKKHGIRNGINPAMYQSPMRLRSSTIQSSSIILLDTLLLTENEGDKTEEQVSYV
In experiment [9] the target is Mu-type opioid receptor (Homo sapiens, UniProt P35372).
Chain of Mu-type opioid receptor (P35372 whole entry): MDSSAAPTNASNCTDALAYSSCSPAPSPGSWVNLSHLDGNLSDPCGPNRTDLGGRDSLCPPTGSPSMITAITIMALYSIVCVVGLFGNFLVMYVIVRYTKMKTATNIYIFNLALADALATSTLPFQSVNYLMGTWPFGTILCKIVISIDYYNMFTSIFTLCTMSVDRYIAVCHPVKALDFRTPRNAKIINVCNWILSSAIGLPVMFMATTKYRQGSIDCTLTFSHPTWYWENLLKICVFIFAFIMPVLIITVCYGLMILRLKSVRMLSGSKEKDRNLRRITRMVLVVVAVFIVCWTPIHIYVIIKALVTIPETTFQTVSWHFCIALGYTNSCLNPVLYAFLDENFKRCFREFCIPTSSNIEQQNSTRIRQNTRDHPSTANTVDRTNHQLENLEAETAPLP
Experiment [10] concerns the target T3, Thromboxane A2 receptor (Homo sapiens, UniProt P21731).
T3 sequence (P21731 whole entry): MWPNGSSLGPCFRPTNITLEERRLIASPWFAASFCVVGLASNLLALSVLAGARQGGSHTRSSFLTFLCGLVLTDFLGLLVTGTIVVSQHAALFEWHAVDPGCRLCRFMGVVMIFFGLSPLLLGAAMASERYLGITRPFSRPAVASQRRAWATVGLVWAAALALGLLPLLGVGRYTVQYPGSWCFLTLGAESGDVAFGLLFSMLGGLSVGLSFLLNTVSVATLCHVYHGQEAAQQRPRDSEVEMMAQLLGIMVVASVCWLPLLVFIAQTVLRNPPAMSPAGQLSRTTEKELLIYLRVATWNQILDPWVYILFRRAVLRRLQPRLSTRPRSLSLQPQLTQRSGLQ
The class given is functional, cell-based.

The target in experiment [11] is T3, Thromboxane A2 receptor. The class given is functional, cell-based. This is another data set of the same source.
Experiment [12] deals with Prostaglandin G/H synthase 1 (Homo sapiens, UniProt P23219). The class given is functional.
Chain of Prostaglandin G/H synthase 1 (P23219 whole entry): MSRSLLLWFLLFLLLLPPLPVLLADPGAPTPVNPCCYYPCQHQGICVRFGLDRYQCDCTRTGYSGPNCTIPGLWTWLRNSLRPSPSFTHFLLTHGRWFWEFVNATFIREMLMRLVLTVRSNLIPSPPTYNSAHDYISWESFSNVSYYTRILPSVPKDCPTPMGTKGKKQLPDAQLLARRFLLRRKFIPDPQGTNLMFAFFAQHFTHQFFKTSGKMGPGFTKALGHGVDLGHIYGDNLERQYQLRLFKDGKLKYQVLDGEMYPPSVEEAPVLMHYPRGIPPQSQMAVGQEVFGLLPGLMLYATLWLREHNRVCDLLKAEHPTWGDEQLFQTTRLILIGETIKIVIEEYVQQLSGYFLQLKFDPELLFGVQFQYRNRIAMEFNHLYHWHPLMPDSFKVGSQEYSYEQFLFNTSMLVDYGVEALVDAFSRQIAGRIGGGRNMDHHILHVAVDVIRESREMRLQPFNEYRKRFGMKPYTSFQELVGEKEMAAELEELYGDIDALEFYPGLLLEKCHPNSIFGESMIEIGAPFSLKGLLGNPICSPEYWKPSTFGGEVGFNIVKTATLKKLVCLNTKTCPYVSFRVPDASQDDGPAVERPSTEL
Further: assay procedure not described here.

Chain of Cannabinoid receptor 1 (P21554 whole entry): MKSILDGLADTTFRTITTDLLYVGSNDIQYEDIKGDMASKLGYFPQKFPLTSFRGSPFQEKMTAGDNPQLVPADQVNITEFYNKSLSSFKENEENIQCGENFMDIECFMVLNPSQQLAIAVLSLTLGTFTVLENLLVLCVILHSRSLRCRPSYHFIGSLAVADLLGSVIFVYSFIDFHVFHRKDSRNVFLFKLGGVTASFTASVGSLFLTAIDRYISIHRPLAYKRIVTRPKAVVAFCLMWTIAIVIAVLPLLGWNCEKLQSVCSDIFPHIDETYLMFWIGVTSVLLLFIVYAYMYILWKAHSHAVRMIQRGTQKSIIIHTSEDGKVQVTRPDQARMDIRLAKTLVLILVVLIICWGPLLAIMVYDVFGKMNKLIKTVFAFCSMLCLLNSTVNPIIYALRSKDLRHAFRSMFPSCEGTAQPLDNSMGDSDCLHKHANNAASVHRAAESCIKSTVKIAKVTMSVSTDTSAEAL
Chain of Voltage-dependent L-type calcium channel subunit alpha-1C (P22002 whole entry): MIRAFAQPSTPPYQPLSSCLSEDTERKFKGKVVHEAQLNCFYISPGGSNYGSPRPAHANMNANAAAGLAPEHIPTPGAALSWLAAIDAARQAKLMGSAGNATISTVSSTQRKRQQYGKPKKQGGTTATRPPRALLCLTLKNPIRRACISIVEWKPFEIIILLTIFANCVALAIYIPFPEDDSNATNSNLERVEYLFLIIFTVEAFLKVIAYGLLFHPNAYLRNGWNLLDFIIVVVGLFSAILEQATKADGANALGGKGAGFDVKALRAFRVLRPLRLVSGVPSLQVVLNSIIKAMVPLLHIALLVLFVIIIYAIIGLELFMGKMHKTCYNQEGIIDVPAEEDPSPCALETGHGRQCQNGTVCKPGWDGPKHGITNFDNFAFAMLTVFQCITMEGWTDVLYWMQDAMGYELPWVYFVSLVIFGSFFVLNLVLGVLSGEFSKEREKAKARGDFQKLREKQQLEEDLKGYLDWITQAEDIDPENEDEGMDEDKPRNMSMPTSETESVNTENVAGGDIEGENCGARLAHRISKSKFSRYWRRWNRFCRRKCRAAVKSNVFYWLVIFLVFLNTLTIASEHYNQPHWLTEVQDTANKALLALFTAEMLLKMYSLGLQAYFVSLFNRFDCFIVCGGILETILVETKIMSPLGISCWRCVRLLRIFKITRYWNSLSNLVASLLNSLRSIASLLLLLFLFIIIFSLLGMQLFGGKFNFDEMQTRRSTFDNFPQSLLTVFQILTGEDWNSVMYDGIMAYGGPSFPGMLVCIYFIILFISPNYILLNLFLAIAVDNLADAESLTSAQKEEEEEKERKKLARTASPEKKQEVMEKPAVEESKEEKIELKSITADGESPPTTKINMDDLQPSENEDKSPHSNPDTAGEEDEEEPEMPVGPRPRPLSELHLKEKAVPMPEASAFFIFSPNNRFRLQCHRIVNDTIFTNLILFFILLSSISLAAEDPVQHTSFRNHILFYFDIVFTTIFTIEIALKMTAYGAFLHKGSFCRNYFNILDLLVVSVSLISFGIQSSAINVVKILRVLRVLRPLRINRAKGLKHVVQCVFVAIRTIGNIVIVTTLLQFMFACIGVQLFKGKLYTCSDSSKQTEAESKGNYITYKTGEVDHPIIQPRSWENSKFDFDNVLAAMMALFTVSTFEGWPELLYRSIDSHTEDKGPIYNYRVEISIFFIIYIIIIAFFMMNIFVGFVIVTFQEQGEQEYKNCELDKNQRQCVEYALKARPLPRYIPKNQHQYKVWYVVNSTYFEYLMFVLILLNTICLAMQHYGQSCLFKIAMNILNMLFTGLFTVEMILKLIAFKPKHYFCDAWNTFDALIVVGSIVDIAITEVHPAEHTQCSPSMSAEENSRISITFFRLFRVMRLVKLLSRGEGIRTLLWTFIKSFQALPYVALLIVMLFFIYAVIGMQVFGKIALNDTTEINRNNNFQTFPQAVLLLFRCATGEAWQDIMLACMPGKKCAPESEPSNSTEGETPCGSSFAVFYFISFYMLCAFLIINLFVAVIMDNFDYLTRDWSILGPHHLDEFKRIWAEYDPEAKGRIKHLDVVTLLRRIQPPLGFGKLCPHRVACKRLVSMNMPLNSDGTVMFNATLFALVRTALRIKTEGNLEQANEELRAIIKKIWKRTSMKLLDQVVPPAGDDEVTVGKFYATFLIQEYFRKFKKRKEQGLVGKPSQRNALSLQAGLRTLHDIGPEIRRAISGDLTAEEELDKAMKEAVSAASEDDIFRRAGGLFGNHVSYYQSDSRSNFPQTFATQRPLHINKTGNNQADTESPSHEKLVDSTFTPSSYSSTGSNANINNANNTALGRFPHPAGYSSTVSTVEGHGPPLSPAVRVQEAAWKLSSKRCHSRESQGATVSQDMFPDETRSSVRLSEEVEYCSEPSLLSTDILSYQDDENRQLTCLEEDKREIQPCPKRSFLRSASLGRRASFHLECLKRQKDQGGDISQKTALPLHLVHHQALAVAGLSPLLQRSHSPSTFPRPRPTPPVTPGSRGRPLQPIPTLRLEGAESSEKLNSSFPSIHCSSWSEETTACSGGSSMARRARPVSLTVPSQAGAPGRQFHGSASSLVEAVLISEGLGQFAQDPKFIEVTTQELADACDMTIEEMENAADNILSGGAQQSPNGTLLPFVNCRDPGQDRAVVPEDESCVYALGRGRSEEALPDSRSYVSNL
Chain of Beta-2 adrenergic receptor (P07550 whole entry): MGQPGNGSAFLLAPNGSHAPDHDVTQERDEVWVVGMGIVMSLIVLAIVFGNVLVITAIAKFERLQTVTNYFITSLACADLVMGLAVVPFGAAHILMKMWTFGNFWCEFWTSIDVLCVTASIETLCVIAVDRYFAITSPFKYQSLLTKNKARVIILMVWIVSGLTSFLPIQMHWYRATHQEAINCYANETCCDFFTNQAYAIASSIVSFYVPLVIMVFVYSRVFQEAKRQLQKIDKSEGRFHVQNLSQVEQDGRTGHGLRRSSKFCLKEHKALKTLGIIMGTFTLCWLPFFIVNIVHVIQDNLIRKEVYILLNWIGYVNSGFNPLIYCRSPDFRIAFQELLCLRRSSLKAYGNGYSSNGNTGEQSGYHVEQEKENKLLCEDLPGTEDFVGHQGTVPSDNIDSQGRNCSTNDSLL

As to `CC(C(=O)O)c1ccc(-c2ccccc2)c(F)c1` (stereo not drawn) [FLURBIPROFEN], the AC50 (as a rule, the concentration at which the activity in the assay is half-maximal) in experiment [1] is above 10 µM; in experiment [2], above 10 µM; in [3] it was above 10 µM; in experiment [4] it was above 10 µM; in experiment [5] it was above 30 µM; in experiment [6] it was above 10 µM. Also, the AC50 in [7], in experiment [8], in [9], in experiment [10] and in [11] was above 30 µM in each case.

Turning to `CCC(=O)O[C@]1(C(=O)SCF)[C@H](C)C[C@H]2[C@@H]3C[C@H](F)C4=CC(=O)C=C[C@]4(C)[C@@]3(F)[C@@H](O)C[C@@]21C` [FLUTICASONE PROPIONATE], the AC50 in experiment [1] is above 30 µM; in [2], above 30 µM; in [3], above 30 µM; in experiment [4], above 30 µM; in [5], above 30 µM; in experiment [6] it was above 10 µM. The AC50 in experiment [7], in [8], in [9], in experiment [12], in experiment [10] and in experiment [11] was above 30 µM throughout.

As to `CN1CCN(C2=Nc3ccccc3Oc3ccc(Cl)cc32)CC1` [LOXAPINE], the AC50 in [1] is 8.8 µM; in experiment [2], above 10 µM; in experiment [4], above 10 µM; in experiment [5], 0.019 µM; in [6], above 10 µM; in experiment [7], 3.95 µM. For the same compound, the AC50 is 8.61 µM in experiment [9], above 30 µM in [12], above 30 µM in experiment [10] and 18.5 µM in experiment [11].
